# From patent publication US20220168198A1, “AN ANTIMICROBIAL MIXTURE” (SYMRISE AG, priority 2019, published 2022)
# Tests used:
# S. aureus = test: MIC determination (agar dilution or broth microdilution), activity against S. aureus; type: cell-based; parameters: unit not given beside the values; details: Comparison: MIC values for the actives taken alone
# Method: (§1) Synergistic activity of mixtures of 4-Isopropyl-3-methylphenol an alpha bisabolol with regard to S. aureus and S. epidermidis was determined. […]
# (§2) Antimicrobial activity was evaluated by determining the Minimum Inhibitory Concentration (MIC) representing the lowest concentration of a chemical which prevents visible growth of a bacterium.
# (§3) The MIC values were determined by preparing solutions of the chemical in vitro at increasing concentrations, incubating the solutions with the separate batches of cultured bacteria, and measuring the results using agar dilution or broth microdilution. Results have been graded into susceptible (often called sensitive), intermediate, or resistant to a particular antibiotic by using a cutoff point. Cut off points are agreed upon values, published in guidelines of a reference body, such as the U.S. Clinical and Laboratory Standards Institute (CLSI), the British Society for Antimicrobial Chemotherapy (BSAC) or the European Committee on Antimicrobial Susceptibility Testing (EUCAST).
# S. epidermitis = test: MIC determination (agar dilution or broth microdilution), activity against S. epidermitis; type: cell-based; parameters: unit not given beside the values; details: Comparison: MIC values for the actives taken alone
# Method: as §1, §2, §3
# [1] = system: mold growth on moist alfalfa hay; details: moist alfalfa hay preservation, Agronomy Journal 47, 64-69, 1955; cited from earlier work
SMILES,MIC (S. aureus),MIC (S. epidermitis),prevention of mold growth [1]
Cc1cc(O)ccc1C(C)C [4-Isopropyl-3-methylphenol],250,250,–
CC(=O)c1ccc(O)cc1 [4-hydroxyacetophenone],–,–,not prevent mold growth
CC(C)=CCC[C@](C)(O)[C@@H]1CC=C(C)CC1 [alpha-Bisabolol],125,125,–
